From patent US20260272879A1, “ANION-BINDING AROMATIC OLIGOAMIDE MACROCYCLES AND METHODS OF MAKING AND USING SAME” (The Research Foundation for The State University of New York, priority 2023, published 2026)
Where two headings read alike, the source gives them in different places.

Legend:
[1] = Isothermal titration calorimetry (ITC), I^−; assay type: binding; conditions: 25° C.
Description: (§1) Isothermal titration calorimetry (ITC) experiments were performed using a MicroCal VP-ITC. ITC experiments were conducted by adding ~1.5 mL of a solution containing c5a to the sample cell. Followed by titrating 10 μL aliquots of a solution containing the corresponding TBA·X salt (~10-14× concentration of c5a solution) from the syringe into the sample cell. Heats of dilution were obtained by titrating 10 μL aliquots of the TBA·X solution from the syringe into the sample cell in the absence of c5a. The heats of dilution were subtracted from the raw data. ITC data processing and curve fitting was done using the Origin program (MicroCal).
(§2) Two-step competition ITC experiments for determining the Ka of c5a and iodide. In CH3CN:CHCl3 (5:95, v/v), the binding affinity of c5a for I^− was too high to be determined with direct NMR or ITC titration. Instead, two-step competition ITC experiments with Cl^− as the competitor were performed.

[2] = Isothermal titration calorimetry (ITC), Cl^−; assay type: binding; conditions: 25° C.
Description: as §1, §2

[3] = Ion transport with different MCl salts, HPTS assay; assay type: biochemical; conditions: POPC LUVs, 100 mM MCl, pH 7.0, 25° C.
Description: Inside vesicles: 10 mM HEPES, 100 mM MCI (M=Li, Na, K, Rb), 1 mM HPTS, pH 7.0. Outside vesicles: 10 mM HEPES, 100 mM MCI, pH 7.0. A base pulse (20 μL of 0.5 M NaOH) was applied to each vesicular solution at 50 s, followed by adding 20 μL of c5a in DMF at 100 s. For each group, the vesicles were lysed after 200 s by adding 0.1% Triton X-100 to obtain the maximum emission intensity for normalization. The emission intensities of the intravesicular HPTS at 510 nm, I405 and I450, corresponding to two excitation wavelengths (405 and 450 nm) were monitored simultaneously, based on which the normalized intensity ratios (I405/I450) of the two emision intensities were obtained.

[4] = 1H NMR titration, binding of iodide; conditions: DMSO-d6:CDCl3 (15:85, v/v), 25° C.
Description: (§3) ^1H NMR Titration methods. Titrations of 4c and 6c with anions as their tetra-n-butyl ammonium (TBA) salts were carried out by ^1H NMR (400 MHz on Bruker-400) at room temperature (298 K). 0.5 mL of receptor 4c (5.0 mM) or 6c (2.0 mM) were prepared in the rubber-cap NMR tubes. Aliquots of concentrated TBACl or TBAI solution (50 mM for the titration of 4c and 20 mM for the titration of 6c) containing the same amount of receptors were added into the receptor solution using 20 microliter pipette. An initial ^1H NMR spectrum was collected and additional spectra were obtained after each injection of TBACl or TBAI solution. All titration ^1H NMR spectra were stacked together and the chemical shifts of amide protons were then fitted to the proposed 1:1 binding model using BindFit v0.5 (http://app.supramolecular.org/bindfit/).
Anion binding with four amides, i.e., L1mer-L4mer, was studied in the mixed solvents of CD3CN/CDCl3 (1/9, v/v) by titrating an amide host with 0 to 5 equivalents of tetrabutylammonium (n-Bu4N^+) salt of the corresponding anion. The binding of chloride, bromide, iodide, and nitrate was examined with the four amides in CDCl3 containing 10% CD3CN. The titration data were collected by monitoring the changes in chemical shifts of the backbone amide protons and the inner aromatic protons with varying ratios of the anion guests. […]

[5] = Isothermal titration calorimetry (ITC), PF6^−; assay type: binding; conditions: 25° C.
Description: as §1, §2

[6] = 1H NMR titration, binding of chloride; conditions: DMSO-d6:CDCl3 (15:85, v/v), 25° C., NMR titration (protons a and b)
Description: as §3
(§4) Anion binding with four amides, i.e., L1mer-L4mer, was studied in the mixed solvents of CD3CN/CDCl3 (1/9, v/v) by titrating an amide host with 0 to 5 equivalents of tetrabutylammonium (n-Bu4N^+) salt of the corresponding anion. The binding of chloride, bromide, iodide, and nitrate was examined with the four amides in CDCl3 containing 10% CD3CN. The titration data were collected by monitoring the changes in chemical shifts of the backbone amide protons and the inner aromatic protons with varying ratios of the anion guests. Job plots indicate that these linear oligoamides and their anion guests bind in a 1:1 stoichiometry.
(§5) The binding of anions by macrocycle 7c was examined in CH3CN/CHCl3 (6/4, v/v) and in DMSO by titrating with various equivalents of the salts of chloride, iodide. nitrate, and dihydrogen phosphate, with tetrabutylammonium (n-Bu4N^+) being the counterion ion. Following the changes in the chemical shifts of backbone amide protons and “inner” aromatic protons allowed the determination of binding constants.
^1H NMR titration methods. Titrations of c5a and c5b with anions as their tetra-n-butylammonium (TBA), tetra-ethylammonium (TEA) and tetra-methylammonium (TMA) salts were carried out by ^1H NMR (400 MHz) at 25° C. […]

[7] = 1H NMR titration, binding of PF6^−; conditions: DMSO-d6:CDCl3 (15:85, v/v), 25° C., NMR titration (protons a and b)
Description: (§6) ^1H NMR titration methods. Titrations of c5a and c5b with anions as their tetra-n-butylammonium (TBA), tetra-ethylammonium (TEA) and tetra-methylammonium (TMA) salts were carried out by ^1H NMR (400 MHz) at 25° C. 0.4 mL of corresponding hosts solutions were prepared in the rubber-cap NMR tubes. Aliquots of concentrated guest solution containing hosts were added into the NMR tubes using 20 microliter pipette. An initial ^1H NMR spectrum was collected and additional spectra were obtained after each injection of guest solution. All titration ^1H NMR spectra were stacked together and the chemical shifts of the internal aromatic CH proton were then fitted to 1:1 binding model using BindFit v0.5 (http://app.supramolecular.org/bindfit/) to evaluate binding constants to anions.

[8] = 1H NMR titration, binding of nitrate; conditions: 25° C.
Source text: as §4, §5, §6

[9] = EC50 of halide transport, HPTS assay; assay type: biochemical; conditions: POPC LUVs, entrapped HPTS
Description: The time course of the emission intensity of intravesicular HPTS, It, was obtained first by ratiometric analysis (Rt=It,450/It,405), followed by normalization according to equation (S1),
where R0=Rt at t=100 s, before the addition of c5a; R∞=Rt at t=350 s upon the addition of Triton X-100. Normalized intensity ratio at 300 s just before addition of Triton X-100 was defined as the transmembrane activity (Y) which was analyzed with the Hill equation (S2) to give effective concentration EC50 and the Hill coefficient n, (S2)
where Y0 is Y in absence of carrier, […], and c is the carrier concentration in a cuvette.

[10] = Isothermal titration calorimetry (ITC), NO3^−; assay type: binding; conditions: DMSO:CHCl3 (5:95, v/v), 25° C.
Description: as §1, §2

[11] = 1H NMR titration, binding of BF4^−; conditions: DMSO-d6:CDCl3 (15:85, v/v), 25° C., NMR titration (protons a and b)
Description: as §6

Question: For `CCCCCCCCOCC(C)(C)C(=O)Nc1ccc2cc1C(=O)Nc1ccc(NC(=O)C(C)(C)COCCCCCCCC)c(c1)C(=O)Nc1ccc(NC(=O)C(C)(C)COCCCCCCCC)c(c1)C(=O)Nc1ccc(NC(=O)C(C)(C)COCCCCCCCC)c(c1)C(=O)Nc1ccc(NC(=O)C(C)(C)COCCCCCCCC)c(c1)C(=O)N2` [c5a], which “Association constant Ka, 1:1 complex with I^−” value ([1]; CH3CN:CHCl3 (5:95, v/v), two-step competition ITC with Cl^− as the competitor) is on record?
Answer: The value was “(6.67 ± 0.81) × 10^7 ^f M^−1”.

Question: And the “Association constant Ka, 1:1 complex with I^−” value ([1]; CH3CN:CHCl3 (5:95, v/v), ITC)?
Answer: The value was “(7.78 ± 4.26) × 10^7 M^−1”.

Question: And the “Association constant Ka, 1:1 complex with I^−” value ([1]; DMSO-d6:CDCl3 (15:85, v/v) column, ITC measurements (footnote d))?
Answer: The value was “(1.18 ± 0.03) × 10^4 ^d M^−1”.

Question: What about the “Association constant Ka, 1:1 complex with I^−” value ([1]; DMSO:CHCl3 (5:95, v/v), ITC) of the same molecule?
Answer: Its value is “(1.83 ± 0.08) × 10^5 M^−1”.

Question: And the “Association constant Ka, 1:1 complex with Cl^−” value ([2]; CH3CN:CHCl3 (5:95, v/v))?
Answer: Its value is “(2.34 ± 0.24) × 10^6 M^−1”.

Question: And the “Association constant Ka, 1:1 complex with Cl^−” value ([2]; DMSO:CHCl3 (5:95, v/v))?
Answer: Its value is “(1.60 ± 0.10) × 10^4 M^−1”.

Question: What about the “transmembrane ion transport in the presence of LiCl, NaCl, KCl, or RbCl” value [3] of the same molecule?
Answer: Its value is “insignificant difference”.

Question: What about the “Association constant Ka, 1:1 complex with I^−” value ([4]; single NMR titration (protons a and b)) of the same molecule?
Answer: Its value is “(2.73 ± 0.17) × 10^4 M^−1”.

Question: And the “Association constant Ka, 1:1 complex with I^−” value ([4]; triplicate NMR titrations (footnote c))?
Answer: The value was “(3.77 ± 0.25) × 10^4 ^c M^−1”.

Question: What about the “Association constant Ka, 1:1 complex with PF6^−” value ([5]; CH3CN:CHCl3 (5:95, v/v)) of the same molecule?
Answer: The value was “(1.23 ± 0.17) × 10^7 M^−1”.

Question: And the “Association constant Ka, 1:1 complex with PF6^−” value ([5]; DMSO:CHCl3 (5:95, v/v))?
Answer: The value was “(2.80 ± 0.20) × 10^4 M^−1”.

Question: And the “Association constant Ka, 1:1 complex with Cl^−” value [6]?
Answer: Its value is “(4.31 ± 0.12) × 10^3 M^−1”.

Question: And the “Association constant Ka, 1:1 complex with PF6^−” value [7]?
Answer: The value was “not detected”.

Question: What about the “Association constant Ka, 1:1 complex with NO3^−” value ([8]; CD3CN:CDCl3 (80:20, v/v), NMR titration) of the same molecule?
Answer: Its value is >10^6 M^−1.

Question: What about the “Association constant Ka, 1:1 complex with NO3^−” value ([8]; DMSO-d6:CDCl3 (15:85, v/v), NMR titration (protons a and b)) of the same molecule?
Answer: Its value is “(1.57 ± 0.13) × 10^5 M^−1”.

Question: And the EC50 ([9]; c5a 0.05 to 10 μM, base pulse, read-out: EC50 for the transport of Br^−)?
Answer: The EC50 was 4.11 µM.

Question: What about the EC50 ([9]; c5a 0.05 to 10 μM, base pulse, read-out: EC50 for the transport of Cl^−) of the same molecule?
Answer: The EC50 was 0.31 µM.

Question: What about the EC50 ([9]; c5a up to 10 μM, too large to be measured, read-out: EC50 for the transport of I^−) of the same molecule?
Answer: Its EC50 is > 10 µM.

Question: And the “Association constant Ka, 1:1 complex with NO3^−” value [10]?
Answer: The value was “(1.30 ± 0.10) × 10^6 M^−1”.

Question: What about the “Association constant Ka, 1:1 complex with BF4^−” value [11] of the same molecule?
Answer: Its value is “(4.73 ± 0.38) × 10^4 M^−1”.
